Reference: US20150141411A1, “SUBSTITUTED 3,4-DIHYDRO-2H-PYRIDO[1,2-A]PYRAZINE-1,6-DIONE DERIVATIVES USEFUL FOR THE TREATMENT OF (INTER ALIA) ALZHEIMER'S DISEASE” (Janssen Pharmaceuticals, Inc., priority 2012, published 2015)
Structures can show the parent of a compound that is named as a salt.

Key:
γ-secretase [1] = molecular target: T1, γ-secretase (Homo sapiens, UniProt P49768); experiment: Screening for γ-secretase-modulating activity: Aβ42 in supernatant of SKNBE2 cells carrying hAPP 695 wild type (Alphalisa); format: cell-based; settings: SKNBE2 human neuroblastoma cells carrying hAPP 695 wild type, overnight incubation, Aβ42 in cell supernatant
T1 construct: endogenous in cells; host or cells: SKNBE2 human neuroblastoma cells (carrying hAPP 695 wild type as substrate)
Method: (§1) Screening was carried out using SKNBE2 human neuroblastoma cells carrying the hAPP 695—wild type, grown in Dulbecco's Modified Eagle's Medium/Nutrient mixture F-12 (DMEM/NUT-mix F-12) (HAM) provided by Invitrogen (cat no. 10371-029) containing 5% Serum/Fe supplemented with 1% non-essential amino acids, 1-glutamine 2 mM, Hepes 15 mM, penicillin 50 U/ml (units/ml) en streptomycin 50 μg/ml. Cells were grown to near confluency.
(§2) The screening was performed using a modification of the assay as described in Citron et al (1997) Nature Medicine 3: 67. Briefly, cells were plated in a 384-well plate at 10^4 cells/well in Ultraculture (Lonza, BE12-725F) supplemented with 1% glutamine (Invitrogen, 25030-024), 1% non-essential amino acid (NEAA), penicillin 50 U/ml en streptomycin 50 μg/ml in the presence of test compound at different test concentrations. The cell/compound mixture was incubated overnight at 37° C., 5% CO2. The next day the media were assayed by two sandwich immuno-assays, for Aβ42 and Aβ total.
(§3) Aβtotal and Aβ42 concentrations were quantified in the cell supernatant using the Aphalisa technology (Perkin Elmer). Alphalisa is a sandwich assay using biotinylated antibody attached to streptavidin coated donorbeads and antibody conjugated to acceptor beads. In the presence of antigen, the beads come into close proximity. The excitation of the donor beads provokes the release of singlet oxygen molecules that trigger a cascade of energy transfer in the acceptor beads, resulting in light emission. To quantify the amount of Aβ42 in the cell supernatant, monoclonal antibody specific to the C-terminus of Aβ42 (JRF/cAβ42/26) was coupled to the receptor beads and biotinylated antibody specific to the N-terminus of Aβ (JRF/AβN/25) was used to react with the donor beads. To quantify the amount of Aβtotal in the cell supernatant, monoclonal antibody specific to the N-terminus of Aβ (JRF/AβN/25) was coupled to the receptor beads and biotinylated antibody specific to the mid region of Aβ (biotinylated 4G8) was used to react with the donor beads.
(§4) To obtain the values reported in Table 3, the data are calculated as percentage of the maximum amount of amyloid Beta 42 measured in the absence of the test compound. The sigmoidal dose response curves were analyzed using non-linear regression analysis with percentage of the control plotted against the log concentration of the compound. A 4-parameter equation was used to determine the IC50.

γ-secretase [2] = molecular target: T1, γ-secretase; experiment: Screening for γ-secretase-modulating activity: Aβtotal in supernatant of SKNBE2 cells carrying hAPP 695 wild type (Alphalisa); format: cell-based; settings: SKNBE2 human neuroblastoma cells carrying hAPP 695 wild type, overnight incubation, Aβtotal in cell supernatant
Method: as §1, §2, §3, §4

Row | SMILES | melting point [°C] | IC50 (γ-secretase [1]) [nM] | IC50 (γ-secretase [2]) [nM]
1 | Cc1cn(-c2ccc3n(c2=O)C[C@@H](C)N(Cc2cccc(Cl)c2)C3=O)cn1 (as salt: HCl) [compound 24] | 184.6 | – | –
2 | Cc1cn(-c2ccc3n(c2=O)C[C@@H](C)N(Cc2cc(C(F)(F)F)ccc2C)C3=O)cn1 (as salt: HCl) [compound 72] | 208.3 | – | –
3 | Cc1cn(-c2ccc3n(c2=O)C[C@@H](C)N(Cc2cc(N4CCC(C)CC4)ccc2Cl)C3=O)cn1 (as salt: HCl) [compound 80] | 235.1 | – | –
4 | Cc1cn(-c2ccc3n(c2=O)C[C@@H](C)N(Cc2cc(N4CCC(C(F)(F)F)CC4)ccc2Cl)C3=O)cn1 (as salt: HCl) [compound 81] | 160.6 | – | –
5 | Cc1cn(-c2ccc3n(c2=O)C[C@@H](C)N(Cc2cc(N4CCCC4)ccc2Cl)C3=O)cn1 (as salt: HCl) [compound 82] | 233.6 | – | –
6 | Cc1cn(-c2ccc3n(c2=O)C[C@@H](C)N(Cc2cc(N4CCCCC4)cc(C(F)(F)F)c2)C3=O)cn1 (as salt: HCl) [compound 86] | 185.3 | – | –
7 | Cc1cn(-c2ccc3n(c2=O)C[C@@H](C)N(Cc2ccc(C)c(-n4cccn4)c2)C3=O)cn1 (as salt: HCl) [compound 114] | 126.9 | – | –
8 | Cc1cn(-c2ccc3n(c2=O)C[C@@H](C)N(Cc2cc(OC(C)C)nc(C(F)(F)F)c2)C3=O)cn1 (as salt: HCl) [compound 128] | 116.9 | – | –
9 | Cc1cn(-c2ccc3n(c2=O)C[C@@H](C)N(Cc2cc(CC(F)(F)F)cc(C(F)(F)F)c2)C3=O)cn1 (as salt: HCl) [compound 134] | 136 | – | –
10 | Cc1cn(-c2ccc3n(c2=O)C[C@@H](C)N(Cc2cc(F)cc(OC(F)(F)F)c2)C3=O)cn1 (as salt: HCl) [compound 139] | 195.9 | – | –
11 | Cc1cn(-c2ccc3n(c2=O)C[C@@H](C)N(Cc2cc(OC(F)(F)F)cc(C(F)(F)F)c2)C3=O)cn1 (as salt: HCl) [compound 140] | 115.2 | – | –
12 | Cc1cn(-c2ccc3n(c2=O)C[C@@H](C)N(Cc2cc(Br)cc(C(F)(F)F)c2)C3=O)cn1 (as salt: HCl) [compound 145] | 204.5 | – | –
13 | Cc1cn(-c2ccc3n(c2=O)C[C@@H](C)N(Cc2cc(OC(C)C)c(Cl)cc2F)C3=O)cn1 (as salt: HCl) [compound 163] | 103.1 | – | –
14 | Cc1cn(-c2ccc3n(c2=O)C[C@@H](C)N(Cc2cc(OCC(F)(F)F)cc(C(F)(F)F)c2)C3=O)cn1 (as salt: HCl) [compound 166] | 137.5 | – | –
15 | Cc1cn(-c2ccc3n(c2=O)C[C@@H](C)N(Cc2ccc(C(F)(F)F)c(N4CCCCC4)c2)C3=O)cn1 (as salt: HCl) [compound 171] | 130.6 | – | –
16 | Cc1cn(-c2ccc3n(c2=O)C[C@@H](C)N(CCc2cccc(Cl)c2Cl)C3=O)cn1 (as salt: HCl) [compound 231] | 218 | – | –
17 | Cc1cn(-c2ccc3n(c2=O)C[C@@H](C)N(Cc2cn(C)c4ccc(OC(F)(F)F)cc24)C3=O)cn1 (as salt: HCl) [compound 253] | 190 | – | –
18 | Cc1cn(-c2ccc3n(c2=O)C[C@@H](C)N(Cc2csc4ccc(Cl)cc24)C3=O)cn1 [compound 165] | – | 20 | > 10000
19 | Cc1cn(-c2ccc3n(c2=O)CC(C(C)O)N(Cc2cc(C(F)(F)F)cc(C(F)(F)F)c2)C3=O)cn1 (stereo not shown) [compound 167] | – | 1200 | > 10000
20 | Cc1cn(-c2ccc3n(c2=O)C[C@@H](C)N(Cc2ccc(C(F)(F)F)c(N4CCCCC4)c2)C3=O)cn1 [compound 171] | – | 40 | > 10000
21 | C[C@@H]1Cn2c(ccc(-n3ccnc3)c2=O)C(=O)N1Cc1cc(C(F)(F)F)cc(C(F)(F)F)c1 [compound 173] | – | 1260 | > 10000
22 | Cc1cn(-c2ccc3n(c2=O)C[C@@H](C)N(Cc2cn(C)c4cc(F)c(C5CC5)cc24)C3=O)cn1 [compound 174] | – | 10 | 5000
23 | Cc1cn(-c2ccc3n(c2=O)C[C@@H](C)N(CCc2ccccc2)C3=O)cn1 [compound 176] | – | 1550 | > 10000
24 | Cc1cn(-c2ccc3n(c2=O)CC(C)N(Cc2cn(C)c4cc(Br)ccc24)C3=O)cn1 (stereo not shown) [compound 177] | – | 40 | > 10000

Row | SMILES | melting point [°C] | IC50 (γ-secretase [1]) [nM] | IC50 (γ-secretase [2]) [nM]
25 | Cc1cn(-c2ccc3n(c2=O)CC(C)N(Cc2c[nH]c4cc(Cl)ccc24)C3=O)cn1 (stereo not shown) [compound 179] | – | 70 | > 10000
26 | Cc1cn(-c2ccc3n(c2=O)C[C@@H](C)N(Cc2c(C)[nH]c4ccc(C(F)(F)F)cc24)C3=O)cn1 [compound 180] | – | 10 | 6610
27 | Cc1cn(-c2ccc3n(c2=O)CC(C)N(Cc2c(C)n(C)c4ccc(C(F)(F)F)cc24)C3=O)cn1 (stereo not shown) [compound 181] | – | 10 | 4570
28 | CCn1c(C)c(CN2C(=O)c3ccc(-n4cnc(C)c4)c(=O)n3C[C@H]2C)c2cc(C(F)(F)F)ccc21 [compound 182] | – | 10 | 2510
29 | Cc1cn(-c2ccc3n(c2=O)C[C@@H](C)N(Cc2c[nH]c4c(I)cccc24)C3=O)cn1 [compound 197] | – | 60 | > 10000
30 | Cc1cn(-c2ccc3n(c2=O)CC(C)N(Cc2cn(-c4ccccc4)c4cc(Br)ccc24)C3=O)cn1 (stereo not shown) [compound 199] | – | 20 | 9780
31 | Cc1cn(-c2ccc3n(c2=O)CC(C)N(C2CCc4ccc(C(F)(F)F)cc42)C3=O)cn1 (stereo not shown) [compound 204] | – | 120 | > 10000
32 | Cc1cn(-c2ccc3n(c2=O)CC(C)N(C2CCc4ccc(C(F)(F)F)cc42)C3=O)cn1 (stereo not shown) [compound 205] | – | 240 | > 10000
33 | COc1ccc2c(c1)c(CN1C(=O)c3ccc(-n4cnc(C)c4)c(=O)n3CC1C)cn2C(C)C (stereo not shown) [compound 222] | – | 60 | > 10000
34 | CCn1cc(CN2C(=O)c3ccc(-n4cnc(C)c4)c(=O)n3CC2C)c2ccc(C(F)(F)F)cc21 (stereo not shown) [compound 225] | – | 20 | > 10000
35 | CCn1cc(CN2C(=O)c3ccc(-n4cnc(C)c4)c(=O)n3C[C@H]2C)c2cc(C(F)(F)F)ccc21 [compound 227] | – | 10 | 2190
36 | Cc1cn(-c2ccc3n(c2=O)C[C@@H](C)N(CCc2cccc(Cl)c2Cl)C3=O)cn1 [compound 231] | – | 260 | > 10000
37 | Cc1cn(-c2ccc3n(c2=O)C[C@@H](C)N(Cc2cn(C)c4cc(F)c(C(F)(F)F)cc24)C3=O)cn1 [compound 238] | – | 9 | 4000
38 | Cc1cn(-c2ccc3n(c2=O)C[C@@H](C)N(Cc2cn(C)c4c(F)cc(C(F)(F)F)cc24)C3=O)cn1 [compound 241] | – | 6 | 4000
39 | Cc1cn(-c2ccc3n(c2=O)C[C@@H](C)N(Cc2cn(C)c4cc(F)ccc24)C3=O)cn1 [compound 242] | – | 260 | > 10000
40 | Cc1cn(-c2ccc3n(c2=O)C[C@@H](C)N(Cc2cn(C)c4ccc(C5CC5)cc24)C3=O)cn1 [compound 246] | – | 20 | 7000
41 | CCn1cc(CN2C(=O)c3ccc(-n4cnc(C)c4)c(=O)n3C[C@H]2C)c2cc(C3CC3)ccc21 [compound 247] | – | 10 | 6000
42 | CCn1cc(CN2C(=O)c3ccc(-n4cnc(C)c4)c(=O)n3C[C@H]2C)c2cc(C)ccc21 [compound 250] | – | 50 | > 10000
43 | Cc1cn(-c2ccc3n(c2=O)C[C@@H](C)N(Cc2c[nH]c4ccc(OC(F)(F)F)cc24)C3=O)cn1 [compound 252] | – | 10 | 5000
44 | Cc1cn(-c2ccc3n(c2=O)C[C@@H](C)N(Cc2cn(C)c4ccc(OC(F)(F)F)cc24)C3=O)cn1 [compound 253] | – | 9 | 5000
45 | Cc1cn(-c2ccc3n(c2=O)C[C@@H](C)N(Cc2c[nH]c4c(C(F)(F)F)cc(F)cc24)C3=O)cn1 [compound 257] | – | 40 | > 10000
46 | Cc1cn(-c2ccc3n(c2=O)C[C@@H](C)N(Cc2cn(C)c4cc(C(F)(F)F)c(F)cc24)C3=O)cn1 [compound 258] | – | 20 | 9000
47 | Cc1cn(-c2ccc3n(c2=O)C[C@@H](C)N(Cc2cn(C)c4c(C(F)(F)F)cc(F)cc24)C3=O)cn1 [compound 261] | – | 60 | > 10000
48 | Cc1ccc2c(c1)c(CN1C(=O)c3ccc(-n4cnc(C)c4)c(=O)n3C[C@H]1C)cn2CC(F)(F)F [compound 262] | – | 20 | > 10000
